Measurements: patent US7632863B2, “3,4,5,4′-tetramethoxyl-α,β-diphenylethane-3′-O-sodium sulphate and its use” (The Jian Cell Biomedical Research Co., Ltd., priority 2007, dated 2009)
“Also recorded” adds a separate entry of the source. Like-named read-outs stand apart in the source and are kept apart here.

Legend:
[1] = Water solubility; type: physicochemical
[2] = system: S180 sarcoma; conditions: for 0 d weight / 11 d weight without tumor / Tumor inhibiting rate % / Tumor weight: i.v., S180 sarcoma-bearing mice
Text: (§1) (1) Sample: 3,4,5,4′-tetramethoxyl-α,β-diphenylethane-3′-O-sodium sulphate (AS) provided by Zhejiang Cell Biomedical Research Co., Ltd., and prepared by the process in Example One. Dissolved by physiological saline for the concentration needed.
(2) Cisplatin: Cisplatin for injection (DDP), Qilu Pharmaceutical Co., Ltd. Batch No.: 5120282DC. Dissolved by physiological saline for preparation.
(3) Control product: Cyclophosphamide for injection (CTX), Jiangsu Hengrui Pharmaceutical Inc. Co. Batch No.: 04123021 Dissolved by physiological saline for preparation.
(§2) (1) KM mouse bearing S180 sarcoma.
(2) 70 KM mice, female, weighting 18-22 g, provided by Zhejing College of Traditional Chinese Medicine.
(1) Drawing ascites under aseptic condition from mouse bearing S180 sarcoma, diluting with physiologic saline 1:3, giving subcutaneous inoculation in the armpit of the right forelimb of the KM mice with 0.2 ml each; dividing the mice into 7 groups randomly the next day, 10 in each group.
(§3) (2) Administering drug to the mice by weight the third day of inoculation, intravenous administration 0.5 ml/20 g […], by weight, and putting them to death on the 11th day after inoculation, weighing the tumor and calculating the rate of tumor inhibition.
(§4) (3) dosage (mg/kg/d) and means of administration:
(§5) AS: 50 mg/kg, tail vein injection
(§6) AS: 100 mg/kg, tail vein injection
(§7) AS: 200 mg/kg, tail vein injection
DDP: 1 mg/kg, tail vein injection
AS+DDP: 50 mg/kg+1 mg/kg, tail vein injection
(§8) CTX: 30 mg/kg, tail vein injection
(§9) Setting up another blank control group, tail vein injection of 0.9% NaCl 0.5 ml.
(§10) (4) Judging the result with the following formula: […]

[3] = system: S180 sarcoma; conditions: for 0 d weight / 11 d weight without tumor / Tumor inhibiting rate % / Tumor weight: i.v., S180 sarcoma-bearing mice; remark: listed apart in the source
Text: as §1
(2) Control product: Cyclophosphamide for injection (CTX), Jiangsu Hengrui Pharmaceutical Inc. Co. Batch No.: 04123021 Dissolved by physiological saline for preparation.
as §2
(2) 50 KM mice, female, weighting 18-22 g, provided by Zhejing College of Traditional Chinese Medicine.
(1) Drawing ascites under aseptic condition from mouse bearing S180 sarcoma, diluting with physiologic saline 1:3, giving subcutaneous inoculation in the armpit of the right forelimb of the KM mice with 0.2 ml each; dividing the mice into 5 groups randomly the next day, 10 in each group.
as §3, §4, §5, §6, §7, §8, §9, §10

[4] = system: Lewis lung cancer; test: Joint administration of AS and DDP, murine model of Lewis lung cancer (Example Five); type: in vivo, C57BL/6J mice; conditions: for Tumor inhibiting rate % / Tumor weight: i.v., mice bearing Lewis lung cancer
Text: (1) Sample: 3,4,5,4′-tetramethoxyl-α,β-diphenylethane-3′-O-sodium sulphate (AS), raw material medicine, provided by Zhejiang Cell Biomedical Research Co., Ltd., and prepared by the process in Example One. Batch No.: 061025. Dissolved by physiological saline for the concentration needed.
(2) Cisplatin: Cisplatin for injection (DDP), Qilu Pharmaceutical Co., Ltd. Batch No.: 5120282DC; Dissolved by physiological saline for preparation
(3) Control product: Cyclophosphamide for injection (CTX), Jiangsu Hengrui Pharmaceutical Inc. Co. Batch No.: 04123021. Dissolved by physiological saline for preparation.
(1) C57BL/6J mouse bearing Lewis lung cancer
(2) 70 C57BL/6J mice, female, weighing 17-21 g. Provided by the animal house of Zhejiang Cell Biomedical Research Co., Ltd.
(1) Taking tumor from C57BL/6J mouse under aseptic condition, grinding and diluting it by physiological saline 1:3 (weight:volume), and giving hypodermic inoculation 0.2 ml per mouse in the armpit of the right forelimb of each mouse. dividing the mice into 7 groups randomly the next day, 10 in each group.
(2) After inoculation, waiting till the tumor has grown to the accessible size, administering medicine according to body weight, 0.5 ml/20 g intravenous, for 11 days, putting the mice to death on the 19th after inoculation, taking out and weighing the tumor, and calculating the tumor inhibiting rate.
as §10

[5] = system: KunMing (KM) mice; test: LD50 determination, tail vein injection; type: in vivo; conditions: for Death rate in total % Total / Death rate in total % ♀ / Death rate in total % ♂ / Deaths days 1 ♀ / Deaths days 1 ♂ / Deaths days 2 ♀ / Deaths days 2 ♂ / Deaths days 3 ♀ / Deaths days 3 ♂ / Deaths days 4 ♀ / Deaths days 4 ♂ / Deaths hours 0-4 ♀ / Deaths hours 0-4 ♂: tail vein injection
Protocol: (§11) 1. Experimental animal: KunMing (KM) mice, provided by Shanghai Slac Laboratory Animal Co., Ltd., half and half of female and male, 6 groups, ten in each group, marked by bitter acid.
(§12) 2. […] Preparing medical solution of equal ratio: dissolving with 0.9% NaCl to prepare the medical solution with the concentration of 336 mg/7 ml, 316.96 mg/7 ml, 299.32 mg/7 ml, 282.52 mg/7 ml, 266.84 mg/7 ml, 252 mg/7 ml.
(§13) 3. Dosage for administration: with 0.5 ml/20 g bottom up.
(§14) 4. Means of administration: tail vein injection
(§15) 5. Experimental method: observing at 0.25 h, 0.5 h, 1 h, 2 h, 4 h, 24 h respectively after administration; then observing once every day 14 days; putting the mice still alive to death on the 15th day and recording the death rate.

[6] = LD50 determination, tail vein injection; type: in vivo, mice; conditions: both sexes, KunMing (KM), mouse, in vivo, intravenous, KM mice, tail vein injection
Protocol: as §11, §12, §13, §14, §15

COc1ccc(CCc2cc(OC)c(OC)c(OC)c2)cc1OS(=O)(=O)[O-].[Na+] [AS, 3,4,5,4′-tetramethoxyl-α,β-diphenylethane-3′-O-sodium sulphate]
water solubility (in words) [1]: good water solubility | 0 d weight ([2]; Dosage 50 mg/kg): 21.06 ± 0.82 g | 11 d weight without tumor ([2]; Dosage 50 mg/kg): 25.89 ± 3.32 g | Tumor inhibiting rate % ([2]; Dosage 50 mg/kg): 44% | Tumor weight ([2]; Dosage 50 mg/kg): 1.63 ± 1.43 g | 0 d weight ([2]; Dosage 100 mg/kg): 20.46 ± 1.03 g | 11 d weight without tumor ([2]; Dosage 100 mg/kg): 28.42 ± 4.13 g | Tumor inhibiting rate % ([2]; Dosage 100 mg/kg): 29% | Tumor weight ([2]; Dosage 100 mg/kg): 2.07 ± 1.03 g | 0 d weight ([2]; Dosage 200 mg/kg): 20.45 ± 0.86 g | 11 d weight without tumor ([2]; Dosage 200 mg/kg): 27.10 ± 2.44 g | Tumor inhibiting rate % ([2]; Dosage 200 mg/kg): 54% | Tumor weight ([2]; Dosage 200 mg/kg): 1.34 ± 0.53 g | effect in inhibiting S180 tumors (in words) ([2]; joint administration with DDP): fine coordinating effect; also recorded: excellent coordinating effect | 0 d weight ([3]; Dosage 50 mg/kg): 21.06 ± 0.82 g | 11 d weight without tumor ([3]; Dosage 50 mg/kg): 25.89 ± 3.32 g | Tumor inhibiting rate % ([3]; Dosage 50 mg/kg): 44% | Tumor weight ([3]; Dosage 50 mg/kg): 1.63 ± 1.43 g | 0 d weight ([3]; Dosage 100 mg/kg): 20.46 ± 1.03 g | 11 d weight without tumor ([3]; Dosage 100 mg/kg): 28.42 ± 4.13 g | Tumor inhibiting rate % ([3]; Dosage 100 mg/kg): 29% | Tumor weight ([3]; Dosage 100 mg/kg): 2.07 ± 1.03 g | 0 d weight ([3]; Dosage 200 mg/kg): 20.45 ± 0.86 g | 11 d weight without tumor ([3]; Dosage 200 mg/kg): 27.10 ± 2.44 g | Tumor inhibiting rate % ([3]; Dosage 200 mg/kg): 54% | Tumor weight ([3]; Dosage 200 mg/kg): 1.34 ± 0.53 g | inhibitory effect on S180 tumors (in words) ([3]; result analysis): excellent inhibitory effect | Tumor inhibiting rate % ([4]; Dosage 50 mg/kg): 35.5% | Tumor weight ([4]; Dosage 50 mg/kg): 3.03 ± 0.55 g | Tumor inhibiting rate % ([4]; Dosage 100 mg/kg): 36.4% | Tumor weight ([4]; Dosage 100 mg/kg): 2.99 ± 0.50 g | Tumor inhibiting rate % ([4]; Dosage 200 mg/kg): 52.1% | Tumor weight ([4]; Dosage 200 mg/kg): 2.25 ± 0.75 g | inhibiting the tumor in murine model of Lewis lung cancer (in words) ([4]; alone): quite effective | inhibiting the tumors in murine model of Lewis lung cancer (in words) ([4]; joint administration with DDP): certain coordinated effect | Death rate in total % Total ([5]; 900 mg/kg): 0% | Death rate in total % ♀ ([5]; 900 mg/kg): 0% | Death rate in total % ♂ ([5]; 900 mg/kg): 0% | Deaths days 1 ♀ ([5]; 900 mg/kg): 0 | Deaths days 1 ♂ ([5]; 900 mg/kg): 0 | Deaths days 2 ♀ ([5]; 900 mg/kg): 0 | Deaths days 2 ♂ ([5]; 900 mg/kg): 0 | Deaths days 3 ♀ ([5]; 900 mg/kg): 0 | Deaths days 3 ♂ ([5]; 900 mg/kg): 0 | Deaths days 4 ♀ ([5]; 900 mg/kg): 0 | Deaths days 4 ♂ ([5]; 900 mg/kg): 0 | Deaths hours 0-4 ♀ ([5]; 900 mg/kg): 0 | Deaths hours 0-4 ♂ ([5]; 900 mg/kg): 0 | Death rate in total % Total ([5]; 953 mg/kg): 0% | Death rate in total % ♀ ([5]; 953 mg/kg): 0% | Death rate in total % ♂ ([5]; 953 mg/kg): 0% | Deaths days 1 ♀ ([5]; 953 mg/kg): 0 | Deaths days 1 ♂ ([5]; 953 mg/kg): 0 | Deaths days 2 ♀ ([5]; 953 mg/kg): 0 | Deaths days 2 ♂ ([5]; 953 mg/kg): 0 | Deaths days 3 ♀ ([5]; 953 mg/kg): 0 | Deaths days 3 ♂ ([5]; 953 mg/kg): 0 | Deaths days 4 ♀ ([5]; 953 mg/kg): 0 | Deaths days 4 ♂ ([5]; 953 mg/kg): 0 | Deaths hours 0-4 ♀ ([5]; 953 mg/kg): 0 | Deaths hours 0-4 ♂ ([5]; 953 mg/kg): 0 | Death rate in total % Total ([5]; 1009 mg/kg): 40% | Death rate in total % ♀ ([5]; 1009 mg/kg): 20% | Death rate in total % ♂ ([5]; 1009 mg/kg): 60% | Deaths days 1 ♀ ([5]; 1009 mg/kg): 0 | Deaths days 1 ♂ ([5]; 1009 mg/kg): 0 | Deaths days 2 ♀ ([5]; 1009 mg/kg): 0 | Deaths days 2 ♂ ([5]; 1009 mg/kg): 0 | Deaths days 3 ♀ ([5]; 1009 mg/kg): 0 | Deaths days 3 ♂ ([5]; 1009 mg/kg): 0 | Deaths days 4 ♀ ([5]; 1009 mg/kg): 0 | Deaths days 4 ♂ ([5]; 1009 mg/kg): 0 | Deaths hours 0-4 ♀ ([5]; 1009 mg/kg): 1 | Deaths hours 0-4 ♂ ([5]; 1009 mg/kg): 3 | Death rate in total % Total ([5]; 1069 mg/kg): 80% | Death rate in total % ♀ ([5]; 1069 mg/kg): 80% | Death rate in total % ♂ ([5]; 1069 mg/kg): 80% | Deaths days 1 ♀ ([5]; 1069 mg/kg): 0 | Deaths days 1 ♂ ([5]; 1069 mg/kg): 0 | Deaths days 2 ♀ ([5]; 1069 mg/kg): 0 | Deaths days 2 ♂ ([5]; 1069 mg/kg): 0 | Deaths days 3 ♀ ([5]; 1069 mg/kg): 0 | Deaths days 3 ♂ ([5]; 1069 mg/kg): 0 | Deaths days 4 ♀ ([5]; 1069 mg/kg): 0 | Deaths days 4 ♂ ([5]; 1069 mg/kg): 0 | Deaths hours 0-4 ♀ ([5]; 1069 mg/kg): 4 | Deaths hours 0-4 ♂ ([5]; 1069 mg/kg): 4 | Death rate in total % Total ([5]; 1132 mg/kg): 60% | Death rate in total % ♀ ([5]; 1132 mg/kg): 60% | Death rate in total % ♂ ([5]; 1132 mg/kg): 60% | Deaths days 1 ♀ ([5]; 1132 mg/kg): 0 | Deaths days 1 ♂ ([5]; 1132 mg/kg): 0 | Deaths days 2 ♀ ([5]; 1132 mg/kg): 0 | Deaths days 2 ♂ ([5]; 1132 mg/kg): 0 | Deaths days 3 ♀ ([5]; 1132 mg/kg): 0 | Deaths days 3 ♂ ([5]; 1132 mg/kg): 0 | Deaths days 4 ♀ ([5]; 1132 mg/kg): 0 | Deaths days 4 ♂ ([5]; 1132 mg/kg): 0 | Deaths hours 0-4 ♀ ([5]; 1132 mg/kg): 3 | Deaths hours 0-4 ♂ ([5]; 1132 mg/kg): 3 | Death rate in total % Total ([5]; 1200 mg/kg): 70% | Death rate in total % ♀ ([5]; 1200 mg/kg): 40% | Death rate in total % ♂ ([5]; 1200 mg/kg): 100% | Deaths days 1 ♀ ([5]; 1200 mg/kg): 0 | Deaths days 1 ♂ ([5]; 1200 mg/kg): 0 | Deaths days 2 ♀ ([5]; 1200 mg/kg): 0 | Deaths days 2 ♂ ([5]; 1200 mg/kg): 0 | Deaths days 3 ♀ ([5]; 1200 mg/kg): 0 | Deaths days 3 ♂ ([5]; 1200 mg/kg): 0 | Deaths days 4 ♀ ([5]; 1200 mg/kg): 0 | Deaths days 4 ♂ ([5]; 1200 mg/kg): 0 | Deaths hours 0-4 ♀ ([5]; 1200 mg/kg): 2 | Deaths hours 0-4 ♂ ([5]; 1200 mg/kg): 5 | toxicity (in words) ([5]; conclusion from LD50): very low | LD50 at 14 days ([6]; observed 14 days, read-out: LD50): 1080 mg/kg | LD50 at 14 days ([6]; read-out: LD50 (Feiller correction) 95% confidence interval): 1030 to 1130 mg/kg
